Test results reported in US9980943B2, “Methods of treating muscular dystrophy” (BOARD OF REGENTS OF THE NEVADA SYSTEM OF HIGHER EDUCATION, …, priority 2013, dated 2018).

How the values were obtained:
Type in all cases: cell-based, mouse
[1] = system: α7 integrin (LacZ reporter in α7βgal+/− myoblasts); assay: Myoblast α7+/LacZ integrin FDG assay (Burkin assay in myoblasts, 96-well); details: α7+/LacZ myoblasts, 96-well
[2] = system: β-galactosidase in CMV-LacZ C2C12 myotubes; assay: CMV-LacZ secondary screen in C2C12 myotubes (β-Gal stabilizing assay); details: C2C12 CMV-LacZ myotubes, fold relative to DMSO
Method in brief: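 β-Gal level was the read-out, measured in a clonal C2C12 line expressing LacZ from a CMV promoter. Dose-response curves used six concentrations, 0.5 μM up to 40 μM, with duplicate points.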

[3] = system: β-galactosidase in CMV-LacZ C2C12 myoblasts; assay: CMV-LacZ secondary screen in C2C12 myoblasts (β-Gal stabilizing assay); details: CMV-LacZ C2C12 myoblasts
Method in brief: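 C2C12 myoblasts stably carrying a linearized CMV-driven LacZ construct, clone chosen by β-gal level in the myoblast FDG assay. Compounds tested in 96-well dose-response at 0.5, 1, 5, 10, 20 and 40 μM, N=2 replicates per point, to detect β-gal stabilization.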

[4] = system: α7 integrin (LacZ reporter in α7+/LacZ myotubes); assay: Myotube α7 integrin FDG assay (Burkin assay in myotubes, 96-well); details: myotubes

Row | SMILES | Burkin Assay in Myoblasts, signal relative to DMSO ([1]; 0.5 uM) | Burkin Assay in Myoblasts, signal relative to DMSO ([1]; 1 uM) | Burkin Assay in Myoblasts, signal relative to DMSO ([1]; 5 uM) | Burkin Assay in Myoblasts, signal relative to DMSO ([1]; 10 uM) | Burkin Assay in Myoblasts, signal relative to DMSO ([1]; 20 uM) | Burkin Assay in Myoblasts, signal relative to DMSO ([1]; 40 uM) | CMV-LACZ in Myotubes, signal relative to DMSO ([2]; 0.5 uM) | CMV-LACZ in Myotubes, signal relative to DMSO ([2]; 1 uM) | CMV-LACZ in Myotubes, signal relative to DMSO ([2]; 5 uM) | CMV-LACZ in Myotubes, signal relative to DMSO ([2]; 10 uM) | CMV-LACZ in Myotubes, signal relative to DMSO ([2]; 20 uM) | CMV-LACZ in Myotubes, signal relative to DMSO ([2]; 40 uM) | CMV-LACZ in Myoblasts (β-galactosidase activity relative to DMSO) ([3]; 0.5 uM) | CMV-LACZ in Myoblasts (β-galactosidase activity relative to DMSO) ([3]; 1 uM) | CMV-LACZ in Myoblasts (β-galactosidase activity relative to DMSO) ([3]; 5 uM) | CMV-LACZ in Myoblasts (β-galactosidase activity relative to DMSO) ([3]; 10 uM) | CMV-LACZ in Myoblasts (β-galactosidase activity relative to DMSO) ([3]; 20 uM) | CMV-LACZ in Myoblasts (β-galactosidase activity relative to DMSO) ([3]; 40 uM) | Burkin Assay in Myotubes, α7 integrin LacZ reporter signal relative to DMSO ([4]; 0.5 uM) | Burkin Assay in Myotubes, α7 integrin LacZ reporter signal relative to DMSO ([4]; 1 uM) | further results
1 | CCC(=O)c1ccc(OCC(O)CN2CC(C)OC(C)C2)cc1.O=C(O)C(=O)O (stereo not drawn) [MLS000053342-01] | 1.222 | 1.088 | 0.9766 | 0.8668 | 1.0354 | 1.022 | 0.9947 | 0.9863 | 0.9033 | 0.9187 | 1.3044 | 1.1344 | 1.0289 | 1.0397 | 1.0865 | 0.8785 | 0.9811 | 0.9930 | 1.059 | 1.011 | Burkin Assay in Myotubes, α7 integrin LacZ reporter signal relative to DMSO ([4]; 5 uM): 1.002; Burkin Assay in Myotubes, α7 integrin LacZ reporter signal relative to DMSO ([4]; 10 uM): 1.03; Burkin Assay in Myotubes, α7 integrin LacZ reporter signal relative to DMSO ([4]; 20 uM): 1.049; Burkin Assay in Myotubes, α7 integrin LacZ reporter signal relative to DMSO ([4]; 40 uM): 1.11
2 | CCOC(=O)c1cc(C(=O)OCC)c(=O)[nH]c1SCc1ccccc1 [MLS001008109-01] | 0.8481 | 0.78 | 1.002 | 0.8626 | 0.826 | 0.8306 | 1.0621 | 1.0168 | 0.9839 | 0.9289 | 1.0756 | 1.0600 | 0.9542 | 1.1138 | 0.9228 | 1.2178 | 0.8730 | 0.7619 | 0.9247 | 0.9146 | Burkin Assay in Myotubes, α7 integrin LacZ reporter signal relative to DMSO ([4]; 5 uM): 1.182; Burkin Assay in Myotubes, α7 integrin LacZ reporter signal relative to DMSO ([4]; 10 uM): 0.9335; Burkin Assay in Myotubes, α7 integrin LacZ reporter signal relative to DMSO ([4]; 20 uM): 0.8264; Burkin Assay in Myotubes, α7 integrin LacZ reporter signal relative to DMSO ([4]; 40 uM): 0.6103
3 | O=C(CCc1ccccc1)c1nnc(-c2ccccc2)o1 [MLS001004364-01] | 1.0917 | 1.105 | 1.035 | 0.9531 | 0.9729 | 0.9374 | 0.9210 | 1.0095 | 0.8978 | 0.9480 | 1.2824 | 1.1824 | 0.9117 | 1.0643 | 1.0438 | 0.9011 | 1.0263 | 1.0441 | 1.093 | 1.105 | Burkin Assay in Myotubes, α7 integrin LacZ reporter signal relative to DMSO ([4]; 5 uM): 0.9047; Burkin Assay in Myotubes, α7 integrin LacZ reporter signal relative to DMSO ([4]; 10 uM): 0.8617; Burkin Assay in Myotubes, α7 integrin LacZ reporter signal relative to DMSO ([4]; 20 uM): 0.8875; Burkin Assay in Myotubes, α7 integrin LacZ reporter signal relative to DMSO ([4]; 40 uM): 1.055
4 | CNC(=O)CSc1nnc(-c2ccc3c(c2)OCO3)n1C [MLS000717689-01] | 1.158 | 1.042 | 1.032 | 1.038 | 0.96 | 0.9866 | 0.8415 | 1.0956 | 0.9686 | 0.9569 | 0.9576 | 0.9129 | 1.0125 | 1.0203 | 1.1129 | 1.0936 | 1.0407 | 0.8996 | 1.111 | 0.9006 | Burkin Assay in Myotubes, α7 integrin LacZ reporter signal relative to DMSO ([4]; 5 uM): 1.048; Burkin Assay in Myotubes, α7 integrin LacZ reporter signal relative to DMSO ([4]; 10 uM): 1.076; Burkin Assay in Myotubes, α7 integrin LacZ reporter signal relative to DMSO ([4]; 20 uM): 0.8283; Burkin Assay in Myotubes, α7 integrin LacZ reporter signal relative to DMSO ([4]; 40 uM): 0.7135
